Several values for one entry are separate records, joined by “and”; a condition that tells them apart may be missing. Equal entries are not always repeated. Toxic doses and inconclusive results are not listed. No stated cut-off is given here; in the data, active means T/C of 150% or more; inactive means T/C below 125%.
Test system: L1210 leukemia ip in BDF1 mice, survival T/C
Assay: NCI In Vivo Anticancer Drug Screen. Data for tumor model L1210 Leukemia (intraperitoneal) in B6D2F1 (BDF1) mice
Conditions: endpoint: mean survival time, higher = longer survival
Summary of the method: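 Value reflects the ratio of survival in compound-treated mice to survival in vehicle-treated controls, with both groups carrying the same transplanted tumor.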

[1] = dose: 100.0 mg/kg/injection, schedule: Q01DX009 (ip), vehicle: Klucel (hydroxypropylcellulose) (HPC)
[2] = dose: 100.0 mg/kg/injection, schedule: Q04DX002 (ip), vehicle: Klucel (hydroxypropylcellulose) (HPC)
[3] = dose: 200.0 mg/kg/injection, schedule: Q01DX009 (ip), vehicle: Klucel (hydroxypropylcellulose) (HPC)
[4] = dose: 200.0 mg/kg/injection, schedule: Q04DX002 (ip), vehicle: Klucel (hydroxypropylcellulose) (HPC)
[5] = dose: 400.0 mg/kg/injection, schedule: Q01DX009 (ip), vehicle: Klucel (hydroxypropylcellulose) (HPC)
[6] = dose: 400.0 mg/kg/injection, schedule: Q04DX002 (ip), vehicle: Klucel (hydroxypropylcellulose) (HPC)
[7] = dose: 100.0 mg/kg/injection, schedule: Q04DX003 (ip), vehicle: saline
[8] = dose: 200.0 mg/kg/injection, schedule: Q04DX003 (ip), vehicle: saline
[9] = dose: 400.0 mg/kg/injection, schedule: Q04DX003 (ip), vehicle: saline
[10] = dose: 100.0 mg/kg/injection, schedule: Q01DX001 (ip), vehicle: carboxymethylcellulose (CMC)
[11] = dose: 200.0 mg/kg/injection, schedule: Q01DX001 (ip), vehicle: carboxymethylcellulose (CMC)
[12] = dose: 400.0 mg/kg/injection, schedule: Q01DX001 (ip), vehicle: carboxymethylcellulose (CMC)
[13] = dose: 100.0 mg/kg/injection, schedule: Q01DX009 (ip), vehicle: saline
[14] = dose: 200.0 mg/kg/injection, schedule: Q01DX009 (ip), vehicle: saline
[15] = dose: 400.0 mg/kg/injection, schedule: Q01DX009 (ip), vehicle: saline
[16] = dose: 100.0 mg/kg/injection, schedule: Q04DX003 (ip), vehicle: Klucel (hydroxypropylcellulose) (HPC)
[17] = dose: 200.0 mg/kg/injection, schedule: Q04DX003 (ip), vehicle: Klucel (hydroxypropylcellulose) (HPC)
[18] = dose: 400.0 mg/kg/injection, schedule: Q04DX003 (ip), vehicle: Klucel (hydroxypropylcellulose) (HPC)
[19] = dose: 12.5 mg/kg/injection, schedule: Q01DX009 (ip), vehicle: Klucel (hydroxypropylcellulose) (HPC)
[20] = dose: 25.0 mg/kg/injection, schedule: Q01DX009 (ip), vehicle: Klucel (hydroxypropylcellulose) (HPC)
[21] = dose: 50.0 mg/kg/injection, schedule: Q01DX009 (ip), vehicle: Klucel (hydroxypropylcellulose) (HPC)
[22] = dose: 50.0 mg/kg/injection, schedule: Q01DX009 (ip), vehicle: saline
[23] = dose: 100.0 mg/kg/injection, schedule: Q01DX009 (ip), vehicle: saline with Tween-80
[24] = dose: 100.0 mg/kg/injection, schedule: Q04DX003 (ip), vehicle: saline with Tween-80
[25] = dose: 200.0 mg/kg/injection, schedule: Q04DX003 (ip), vehicle: saline with Tween-80
[26] = dose: 400.0 mg/kg/injection, schedule: Q04DX003 (ip), vehicle: saline with Tween-80
[27] = dose: 25.0 mg/kg/injection, schedule: Q04DX003 (ip), vehicle: saline
[28] = dose: 50.0 mg/kg/injection, schedule: Q04DX003 (ip), vehicle: saline

Measured: T/C

O=C(c1ccccc1)C(Nc1nc2nc(-c3ccccc3)c(-c3ccccc3)n2[nH]1)c1ccccc1 (stereo not given)
inactive: dose: 100.0 mg/kg/injection, schedule: Q01DX005 (ip), vehicle: Klucel (hydroxypropylcellulose) (HPC) 98 % of control | [1] 93 % of control | [2] 101 % of control | dose: 200.0 mg/kg/injection, schedule: Q01DX005 (ip), vehicle: Klucel (hydroxypropylcellulose) (HPC) 98 % of control | [3] 93 % of control | [4] 93 % of control | dose: 400.0 mg/kg/injection, schedule: Q01DX005 (ip), vehicle: Klucel (hydroxypropylcellulose) (HPC) 98 % of control | [5] 93 % of control | [6] 96 % of control

CP1(=O)CCC(=O)C1 (stereo not given)
inactive: [7] 98 % of control | [8] 110 % of control | [9] 104 % of control

O=[N+]([O-])c1cc(S(=O)(=O)c2ccccc2)ccc1S(=O)(=O)c1ccccc1
inactive: dose: 50.0 mg/kg/injection, schedule: Q01DX005 (ip), vehicle: saline with Tween-80 99 % of control | dose: 100.0 mg/kg/injection, schedule: Q01DX005 (ip), vehicle: saline with Tween-80 94 % of control | dose: 400.0 mg/kg/injection, schedule: Q01DX005 (ip), vehicle: saline with Tween-80 89 % of control

CCCCC(=O)N/N=C\c1ccc(N(CC)CC)cc1
inactive: [10] 95 % of control | [11] 87 % of control | [12] 87 % of control

COC(=O)c1ccnc(C(=O)OC)c1
inactive: dose: 100.0 mg/kg/injection, schedule: Q01DX001 (ip), vehicle: saline sonified 98 % of control | [13] 95 % of control | dose: 200.0 mg/kg/injection, schedule: Q01DX001 (ip), vehicle: saline sonified 103 % of control | [14] 95 % of control | dose: 400.0 mg/kg/injection, schedule: Q01DX001 (ip), vehicle: saline sonified 98 % of control | [15] 93 % of control

Cc1cc(C)n(/N=C/c2ccc([N+](=O)[O-])o2)c(=O)c1C#N
inactive: [10] 88 % of control | [11] 91 % of control | [12] 88 % of control

COc1ccc(/C=C/c2ccc3ccccc3n2)cc1
inactive: [2] 111 % of control | [4] 97 % of control | [6] 105 % of control

OCCCCCn1cnc2c(=S)nc[nH]c21
inactive: [1] 101 % of control | [16] 93 % of control | [3] 101 % of control | [17] 98 % of control | [5] 102 % of control | [18] 95 % of control

CN(C)S(=O)(=O)c1ccc(NC(=O)OC2CCCCCC2)cc1
inactive: dose: 100.0 mg/kg/injection, schedule: Q01DX001 (ip), vehicle: saline 91 % of control | dose: 200.0 mg/kg/injection, schedule: Q01DX001 (ip), vehicle: saline 94 % of control | dose: 400.0 mg/kg/injection, schedule: Q01DX001 (ip), vehicle: saline 91 % of control

COc1ccccc1N1CCN(CCCC(=O)c2ccc(F)cc2)CC1
inactive: [19] 96 % of control | [20] 105 % of control | dose: 25.0 mg/kg/injection, schedule: Q04DX003 (ip), vehicle: Klucel (hydroxypropylcellulose) (HPC) 108 % of control | [21] 105 % of control | dose: 50.0 mg/kg/injection, schedule: Q04DX003 (ip), vehicle: Klucel (hydroxypropylcellulose) (HPC) 111 % of control | [1] 122 % of control | [16] 116 % of control | [17] 111 % of control

O=C1N2CCOC2=NC1(c1ccccc1)c1ccccc1
inactive: [22] 111 % of control | [7] 94 % of control | [8] 103 % of control

CN1C(=O)C2C(N=CN2C)N(C)C1=O (stereo not given)
inactive: [23] 96 % of control | dose: 200.0 mg/kg/injection, schedule: Q01DX009 (ip), vehicle: saline with Tween-80 90 % of control

O=C1OC(=C(Br)Br)C2C3C=CC(CC3)C12 (stereo not given)
inactive: [7] 95 % of control | [8] 98 % of control | [9] 98 % of control

CC1CCC(NC2=NCCO2)C1 (stereo not given)
inactive: [24] 96 % of control | [25] 93 % of control | [26] 93 % of control

CC(C)(SCc1ccccc1)C(N)C(=O)O (stereo not given)
inactive: dose: 75.0 mg/kg/injection, schedule: Q01DX001 (ip), vehicle: saline 104 % of control | [13] 91 % of control | [7] 105 % of control | dose: 150.0 mg/kg/injection, schedule: Q01DX001 (ip), vehicle: saline 98 % of control | [14] 98 % of control | [8] 102 % of control | [15] 91 % of control | [9] 97 % of control

CCOc1ccccc1NC(=O)c1cc2ccccc2cc1O
inactive: [13] 102 % of control | [7] 98 % of control | [14] 109 % of control | [8] 102 % of control | [15] 102 % of control | [9] 100 % of control

CC(C)=CCC(CCN(C)C)(C(N)=O)c1cccc2ccccc12 (stereo not given)
inactive: dose: 5.0 mg/kg/injection, schedule: Q01DX009 (ip), vehicle: Klucel (hydroxypropylcellulose) (HPC) 102 % of control | dose: 5.0 mg/kg/injection, schedule: Q04DX003 (ip), vehicle: Klucel (hydroxypropylcellulose) (HPC) 94 % of control | dose: 10.0 mg/kg/injection, schedule: Q01DX009 (ip), vehicle: Klucel (hydroxypropylcellulose) (HPC) 93 % of control | dose: 10.0 mg/kg/injection, schedule: Q04DX003 (ip), vehicle: Klucel (hydroxypropylcellulose) (HPC) 91 % of control | dose: 20.0 mg/kg/injection, schedule: Q01DX009 (ip), vehicle: Klucel (hydroxypropylcellulose) (HPC) 91 % of control | dose: 20.0 mg/kg/injection, schedule: Q04DX003 (ip), vehicle: Klucel (hydroxypropylcellulose) (HPC) 96 % of control

Cc1nnc([N+](=O)[O-])s1
inactive: [19] 107 % of control | [20] 112 % of control | [21] 102 % of control

O=S(=O)(Sc1ccc(N(CCCl)CCCl)cc1)c1ccc(N(CCCl)CCCl)cc1
inactive: dose: 50.0 mg/kg/injection, schedule: Q01DX001 (ip), vehicle: carboxymethylcellulose (CMC) 109 % of control | [10] 100 % of control | [11] 117 % of control | [12] 109 % of control

CC(=O)N(c1ccccc1OS(C)(=O)=O)S(C)(=O)=O
inactive: [16] 109 % of control | [17] 100 % of control | [18] 104 % of control

Cc1cc(C)c(C(=O)CCN(C)C)c(C)c1
inactive: dose: 25.0 mg/kg/injection, schedule: Q01DX009 (ip), vehicle: saline 103 % of control | [27] 93 % of control | [22] 96 % of control | [28] 96 % of control | [7] 93 % of control and 104 % of control

O=c1sc(=S)[nH]c2ccccc12
inactive: [16] 88 % of control | [17] 93 % of control

CCCCCCCCCCCCCCCCOc1ccccc1/C=N/O
inactive: [24] 94 % of control | [25] 95 % of control | [26] 90 % of control

Cc1cc(=O)[nH]c(NCCCCCC(=O)O)n1
inactive: [27] 104 % of control | [28] 104 % of control | [7] 101 % of control

O=S1(=O)C2C=CCC1C(Cl)CC2 (stereo not given)
inactive: dose: 12.5 mg/kg/injection, schedule: Q01DX001 (ip), vehicle: Klucel (hydroxypropylcellulose) (HPC) 97 % of control | [19] 92 % of control | dose: 25.0 mg/kg/injection, schedule: Q01DX001 (ip), vehicle: Klucel (hydroxypropylcellulose) (HPC) 95 % of control | [20] 89 % of control | dose: 50.0 mg/kg/injection, schedule: Q01DX001 (ip), vehicle: Klucel (hydroxypropylcellulose) (HPC) 93 % of control

CCNC(=S)Nc1ccc(Cl)cc1
inactive: dose: 25.0 mg/kg/injection, schedule: Q01DX009 (ip), vehicle: saline with Tween-80 93 % of control | dose: 50.0 mg/kg/injection, schedule: Q01DX009 (ip), vehicle: saline with Tween-80 95 % of control | [23] 97 % of control | [24] 104 % of control
